Source: patent publication US11666541B2, “Systems and methods for feeding sugar alcohol to ruminants during periods of heat stress” (PURINA ANIMAL NUTRITION LLC, priority 2012, dated 2023)

Columns and labels:
Assay type in all cases: in vivo
[1] = system: dairy cattle in mid-lactation; assay: Example 3: feeding sorbitol at about 100 grams per day to dairy cattle in mid-lactation, with and without misters; settings: for 3.5% FCM / Body Weight / Daily Milk Yield / Dry Matter Intake / ECM / Milk Fat / Milk Protein: about 100 g/day
Source text: 64 dairy cattle were separated into four pens of 16 dairy cattle each pen was provided one of the four treatments described above in connection with Example 1. The treatment groups receiving sorbitol in the diet were provided 1 pound of premix per day during a ten week testing period. During the study, the temperature was between 70 degrees and 85 degrees during […] of study and was greater than 85 degrees during 25 percent of the study. […] [table] [table]

[2] = system: heat stressed lactating dairy cattle in a post-peak phase of lactation; assay: Example 1: feeding about 100 grams of sorbitol per day to heat stressed lactating dairy cattle in post-peak phase, with and without evaporative cooling
Source text: In the Examples below, statistical analysis was completed for parameters studied such as milk yield, energy corrected milk (ECM), fat corrected milk (FCM), and dry matter intake. A P value of 0.10 means that 10 times out of 100 the results can be explained by factors other than the feeding of sorbitol versus the lack of sorbitol feeding. Likewise, a P value of 0.75 means that 75 times out of 100, the difference in value between the control group and the sorbitol-fed group may be explained by factors other than the feeding of the increased rate(s) of supplemental feed versus the lower rate of feeding of the supplemental feed (e.g., 4 pounds per head per day). For purposes of comparing data in this document, P values of 0.15, or lower, are considered statistically significant. Thus, where a P value of 0.15 or less is returned for particular results, it is assumed that the differing results may be explained by the test regimen, i.e.: the feeding of the increased rate(s) of supplemental feed versus the lower rate of feeding of the supplemental feed (e.g., 4 pounds per head per day). […] In this example, 32 multiparous cows were blocked by production and days in milk into one of two diets, a control diet without sorbitol and a diet with sorbitol, and each treatment group was divided into two cooling treatments. The four treatment groups included 1) a control diet with fans and no mist; 2) a sorbitol-supplemented diet with fans and no mist; 3) a control diet with fans and mist; and 4) a sorbitol-supplemented diet with fans and mist. During the study, the ambient temperature was between 70 degrees and 85 degrees during 51 percent of study and was greater than 85 degrees during 13 percent of the study. Heat stress in the dairy cattle was observed through changes in performance as well as increased respiration rates. Dairy cattle performance and respiration rates for the dairy cattle not receiving mister cooling is compared to dairy cattle receiving mist treatment in Table 1. The sorbitol in the sorbitol-supplemented diets was processed as an extruded pellet and added to other grain concentrates prior to final addition and delivery to the ruminant. [table] [table]

[3] = system: heat stressed transition dairy cattle; assay: Example 2: feeding sorbitol to heat stressed transition dairy cattle (about 150 g/d prior to calving, about 125 g/d after), with and without evaporative cooling
Source text: In this example, the dairy cattle were blocked in the same manner as Example 1. During the study, the ambient temperature was between 70 degrees and 85 degrees during 62 percent of study and was greater than 85 degrees during 18 percent of the study.
After 30 days in milk, all postfresh cows were fed a common diet until 60 days post partum. The nutrient analysis of the total mixed rations for the control and sorbitol diets provided during the study are shown in Table 5C:
As provided in FIGS. 5A and 5B, sorbitol was provided in a base mix at a rate of 1.5 pounds per day for prefresh dairy cattle (e.g., for 28 days prior to calving) and at a rate of 1.25 pounds per day for post fresh dairy cattle (e.g., for 30 days post-calving).
From day 30 to day 60, all dairy cattle study groups received the same diet free of sorbitol (see Table 5).

[4] = sorbitol without mister treatment
[5] = about 100 g sorbitol/day, post-peak, pooled across cooling strategies and day
[6] = day 0 to 30 postpartum, Misters
[7] = day 0 to 30 postpartum, No Misters
[8] = day 0 to 60 postpartum (sorbitol-free common diet from day 30), Misters
[9] = day 0 to 60 postpartum (sorbitol-free common diet from day 30), No Misters

Compound: OC[C@@H](O)[C@@H](O)[C@H](O)[C@@H](O)CO [Sorbitol, sorbitol]
- 3.5% FCM ([1]; Misters): 66.7 lbs/d
- Body Weight ([1]; Misters): 1373 lbs
- Daily Milk Yield ([1]; Misters): 73.7 lbs/d
- Dry Matter Intake ([1]; Misters): 49.4 lbs/d
- ECM ([1]; Misters): 68.1 lbs/d
- Milk Fat ([1]; Misters): 2.92%
- Milk Protein ([1]; Misters): 2.92%
- 3.5% FCM ([1]; No Misters): 66.0 lbs/d
- Body Weight ([1]; No Misters): 1393 lbs
- Daily Milk Yield ([1]; No Misters): 71.9 lbs/d
- Dry Matter Intake ([1]; No Misters): 51.2 lbs/d
- ECM ([1]; No Misters): 67.3 lbs/d
- Milk Fat ([1]; No Misters): 3.03%
- Milk Protein ([1]; No Misters): 2.92%
- increase in milk yield compared to the control group without mister treatment ([1]; sorbitol and mister treatment): about 3.5 pounds per day
- increase in milk yield compared to the control group without mister treatment [1, 4]: about 1.7 pounds per day
- DMI [2, 5]: 24.7 kg/day
- Daily Milk [2, 5]: 39.4 kg/day
- ECM [2, 5]: 37.2 kg/day
- FCM [2, 5]: 36.8 kg/day
- Fat [2, 5]: 1.23 kg/day
- Fat, % [2, 5]: 3.16%
- Milk to Feed [2, 5]: 1.60
- Protein [2, 5]: 1.12 kg/day
- Protein, % [2, 5]: 2.87%
- Respiration rates [2, 5]: 63.0
- performance: daily milk, ECM, FCM (FIG. 1) ([2]; sorbitol and mister treatment): best overall performance in comparison to all other groups studied
- milk-to-feed ratio (FIG. 3) ([2]; sorbitol group with mister treatment): 1.64 kg of milk for every kg of dry matter consumed
- milk-to-feed ratio (FIG. 3) ([2]; sorbitol group without mister treatment): 1.55 kg of milk for every kg of dry matter consumed
- difference in ECM ([2]; sorbitol group without mister treatment vs control group with misters): 0.3 kg/day
- FCM results vs control ([2]; sorbitol with and without mister treatment): performed better than the control group with mister treatment and significantly better than the control group without mister treatment
- variation of dry matter intake between the two sorbitol groups ([2]; sorbitol with vs without misters): 0.4 kg/day
- ECM results vs control [2, 4]: performed significantly better than the control group without sorbitol and mister treatment
- performance: daily milk, ECM, FCM (FIG. 1) [2, 4]: performed better than the control group without misters in all performance areas
- daily dry matter intake (FIG. 2) ([2]; the other groups (both sorbitol groups and control without misters) vs 28 for control with misters): 25 kg/day
- Body Weight, post [3, 6]: 1259 lbs
- DMI as % BW [3, 6]: 3.05%
- Daily Milk Yield [3, 6]: 78.7 lbs/d
- Dry Matter Intake [3, 6]: 37.8 lbs/d
- ECM [3, 6]: 80.2 lbs/d
- FCM [3, 6]: 80.7 lbs/d
- Milk Fat [3, 6]: 3.53%
- Milk Protein [3, 6]: 2.81%
- Milk-to-Feed Ratio [3, 6]: 2.08
- Body Weight, post [3, 7]: 1232 lbs
- DMI as % BW [3, 7]: 3.03%
- Daily Milk Yield [3, 7]: 74.4 lbs/d
- Dry Matter Intake [3, 7]: 36.8 lbs/d
- ECM [3, 7]: 75.2 lbs/d
- FCM [3, 7]: 75.5 lbs/d
- Milk Fat [3, 7]: 3.42%
- Milk Protein [3, 7]: 2.81%
- Milk-to-Feed Ratio [3, 7]: 2.05
- increase in milk yield compared to the control group without mister treatment ([3]; day 0 to 30 postpartum, sorbitol and mister treatment): about 11.5 pounds per day
- increase in milk yield compared to the control group without mister treatment ([3]; day 0 to 30 postpartum, sorbitol without mister treatment): about 7.2 pounds per day
- Body Weight, post [3, 8]: 1261 lbs
- DMI as % BW [3, 8]: 3.45%
- Daily Milk Yield [3, 8]: 84.3 lbs/d
- Dry Matter Intake [3, 8]: 42.9 lbs/d
- ECM [3, 8]: 79.8 lbs/d
- FCM [3, 8]: 80.4 lbs/d
- Milk - to - Feed [3, 8]: 2.00
- Milk Fat [3, 8]: 3.17%
- Milk Protein [3, 8]: 2.66%
- Milk - to - Feed ([3]; day 0 to 60 postpartum (sorbitol-free common diet from day 30), Misters, listed as sorbitol): 2.0
- Body Weight, post [3, 9]: 1231 lbs
- DMI as % BW [3, 9]: 3.32%
- Daily Milk Yield [3, 9]: 81.2 lbs/d
- Dry Matter Intake [3, 9]: 41.1 lbs/d
- ECM [3, 9]: 77.3 lbs/d
- FCM [3, 9]: 77.7 lbs/d
- Milk - to - Feed [3, 9]: 1.97
- Milk Fat [3, 9]: 3.12%
- Milk Protein [3, 9]: 2.66%
- increase in milk yield compared to the control group without mister treatment ([3]; day 0 to 60 postpartum, sorbitol and mister treatment): about 11.3 pounds per day
- increase in milk yield compared to the control group without mister treatment ([3]; day 0 to 60 postpartum, sorbitol without mister treatment): about 8.2 pounds per day
- beta hydroxy butyrate (BHBA) levels (FIG. 4) ([3]; transition phase, sorbitol groups vs control without misters): control group without mister treatment experienced a spike in BHBA levels compared to the sorbitol groups
